Laboratory results taken from patent US9889126B2, “Use of naratriptan in the treatment of rosacea” (GALDERMA RESEARCH & DEVELOPMENT, priority 2013, dated 2018).

Columns and labels:
[1] = test system: human subcutaneous veins; test: Vascular tonicity of human subcutaneous veins ex vivo, myography; type: cell-based; conditions: for EC50 / Emax (% max. contraction vs. 80 mM KCL): human subcutaneous vein, n=1; for EC50: dose-response
Method: (§1) Human subcutaneous veins are isolated from healthy human skin derived from plastic surgery operative waste (abdominal plasty). On receipt the skin sample is held at 4° C. in a receptacle containing physiological saline solution (PSS) 1× at pH=7.4. Dissection, isolation and mounting of the veins are conducted in cold PSS pH=7.4 using straight forceps and a stereomicroscope. Once the vein is isolated and cleaned of surrounding fat and conjunctive tissue, a segment 2 mm in length and diameter of between 100 and 600 μm is mounted in the myograph chamber between two 40 μm tungsten wires attached to removable jaws connected to the tension sensor and held in physiological saline solution (PSS) at pH=7.4 and 37° C. To perform the myography study the vein is placed at working pre-tension (g) corresponding to physiological pressure of 18 mmHg. Pre-tensioning is obtained by mechanical action to draw apart the tungsten wires (40 μm). The viability of the vessel is verified by depolarising the membrane of the vessel smooth muscle cells by increasing the concentration of potassium in the chamber. To do so the PSS solution contained in each chamber is replaced by a solution containing 80 mM KCl at pH=7.4 and pre-heated to 37° C. This step must be repeated twice with 1×PSS washing to cause relaxation between each contraction. At this stage if there is no change in measured tension the isolated vessel is considered non-viable. Naratriptan was evaluated by dose-response (n=1) to determine its maximum contraction intensity (Emax) and strength (EC50). The vessel was treated with increasing successive doses of product added every 3 minutes to the myograph chamber. Tension data (g) are successively converted to: • Tension (mN) 1 g=9.81 mN • Tension applied to the vessel wall (mN/mm): by dividing the tension value in mN by twice the length of the vessel i.e. 4 mm.
(§2) Data are then expressed for the vasoconstrictor product in percentage contraction (%) taking as 100% the value obtained for treatment with 80 mM KCl at step 1 to verify vessel viability.
(§3) The method used for this study is identical to the method used in Example 1. To perform myographic studies the vein is placed at a pre-tension (g) corresponding to physiological pressure of 18 mmHg while the artery is placed at a pre-tension of 90 mmHg since an artery wall is thicker than a vein wall.
(§4) The myograph apparatus has four independent chambers. Therefore four vessel segments were mounted in parallel in each study. Each compound was subjected to dose-response evaluation for each type of vessel (n=1). The vessel was therefore treated with successive, increasing concentrations of product added every 3 minutes to the myograph chamber. The tested compounds were naratriptan, sumatriptan, almotriptan and Rizatriptan.

[2] = Release and penetration into dermatomized human skin (Franz cells); type: in vitro ADME; conditions: 2% in PBS; for Mass balance: mean
[3] = test system: human subcutaneous artery; test: Vascular tonicity of human subcutaneous arteries ex vivo, myography; type: cell-based; conditions: for EC50: sc, dose-response
Method: as §1, §2, §3, §4

[4] = test system: neurogenic inflammation induced in mouse ear; test: Neurogenic inflammation assay, mouse ear, reziniferatoxin (RTX); type: in vivo
Method: The compound was then tested in a water/ethanol carrier to increase solubility.

EC50 [1] [nM]	EC50 ([3]; n=1) [nM]	Structure (SMILES)	Emax (% max. contraction vs. 80 mM KCL) [1] [%]	Total skin [2] [% applied dose]	Mass balance [2] [% applied dose]	Persistent effect on the human vein after successive washings, time after removal of the compound ([1]; Example 1, after removal of compound from the chamber) [min]	Emax (% max. contraction vs. 80 mM KCl) ([3]; n=1) [%]	Inhibition of neurogenic inflammation ([4]; 1% in acetone carrier, up to 45 minutes after treatment, single RTX application)	Inhibition of neurogenic inflammation ([4]; 1% topical in water/ethanol carrier, treatment time 15 minutes)	Total skin ([2]; listed as Naratriptan hydrochloride) [% applied dose]	Emax (% max. contraction vs. 80 mM KCl) ([3]; n=1, listed as sumatriptan) [%]
62	–	CN(C)CCc1c[nH]c2ccc(CS(=O)(=O)N3CCCC3)cc12 [Almotriptan, almotriptan]	97	1.86	94.16	–	–	–	–	–	–
93	217	CN(C)CCc1c[nH]c2ccc(Cn3cncn3)cc12 [Rizatriptan, rizatriptan]	94	–	–	–	54	–	–	–	–
65	138	CNS(=O)(=O)Cc1ccc2[nH]cc(CCN(C)C)c2c1 [Sumatriptan, sumatriptan]	101	–	–	–	61	–	–	–	70

Structure (SMILES)	EC50 [1] [nM]	EC50 ([3]; n=1) [nM]	Emax (% max. contraction vs. 80 mM KCL) [1] [%]	Total skin [2] [% applied dose]	Mass balance [2] [% applied dose]	Persistent effect on the human vein after successive washings, time after removal of the compound ([1]; Example 1, after removal of compound from the chamber) [min]	Emax (% max. contraction vs. 80 mM KCl) ([3]; n=1) [%]	Inhibition of neurogenic inflammation ([4]; 1% in acetone carrier, up to 45 minutes after treatment, single RTX application)	Inhibition of neurogenic inflammation ([4]; 1% topical in water/ethanol carrier, treatment time 15 minutes)	Total skin ([2]; listed as Naratriptan hydrochloride) [% applied dose]	Emax (% max. contraction vs. 80 mM KCl) ([3]; n=1, listed as sumatriptan) [%]
CNS(=O)(=O)CCc1ccc2[nH]cc(C3CCN(C)CC3)c2c1 [Naratriptan, N-methyl-2-[3-(1-methylpiperidin-4-yl)-1H-indol-5-yl]ethanesulfonamide]	13	20	105	3.46	91.22	≤ 90	82	significantly inhibited	significant inhibition	3.61	–
